Test results reported in patent publication US12709731B2, “Method of producing biological material” (NTT, Inc., priority 2021, dated 2026).

What was measured:
Format in all cases: cell-based
Cyanidioschyzon merolae [1] = test: Test 1: color of microorganism-containing liquid after suspension culture with regulator; conditions: for contribution to a reduction of light-harvesting pigments: added to MA2 culture medium, 18 hours culture, judged from color in FIG. 3; for color of the microorganism-containing liquid after cultivation (FIG. 3): MA2 culture medium, light condition, 18 hours after addition
Experimental: Unicellular red algae were cultured in suspension under a light condition and a regulator was added thereto. An MA2 culture medium was used as a culture medium. Cyanidioschyzon merolae were used as unicellular red algae. Dimethyl 2-oxoglutarate was used as the regulator. Then, after the regulator was added, the culture was further continued for 18 hours.
The above-mentioned cultivation was carried out for each case where the final concentrations of dimethyl 2-oxoglutarate were adjusted to 10, 20, 40 and 80 mmmol/L (=mM). In addition, cultivation was also carried out in a similar manner except that the addition of dimethyl 2-oxoglutarate was omitted.
Thereafter, each of microorganism-containing liquids containing unicellular red algae and the culture medium was imaged.
In addition, cultivation was carried out in a similar manner except that 2-oxoglutaric acid was used instead of using dimethyl 2-oxoglutarate. Thereafter, each of dispersion microorganism-containing liquids containing unicellular red algae and the culture medium was imaged.
FIG. 3 is an image obtained by imaging the microorganism-containing liquids after cultivation. In FIG. 3, “2-OG” and “dimethyl 2-OG” represent 2-oxoglutaric acid and dimethyl 2-oxoglutarate, respectively.

Cyanidioschyzon merolae [2] = test: Test 3: amount of phycocyanin in microorganism-containing liquid after addition of regulator; conditions: final concentration 2 mmol/L; every culture time as in test 2 (0, 6, 24 hours); average of three independent tests; control increased
Experimental: Cultivation was carried out in a similar manner to that in the test 2 and the amounts of phycocyanin contained in the microorganism-containing liquids were determined in every culture time. FIG. 5 is a graph showing an example of the effect of the addition of a regulator on the amount of phycocyanin. […] Furthermore, “dimethyl 2-OG” indicates the results obtained for unicellular red algae cultured by adding dimethyl 2-oxoglutarate to the culture medium as a regulator.

Cyanidioschyzon merolae [3] = test: Test 2: amount of chlorophyll a in microorganism-containing liquid after addition of regulator; conditions: final concentration 2 mmol/L; immediately before, 6 hours and 24 hours after addition; average of three independent tests; control increased
Experimental: Unicellular red algae were cultured in suspension under a light condition and a regulator was added thereto. An MA2 culture medium was used as a culture medium. Cyanidioschyzon merolae were used as unicellular red algae. Dimethyl 2-oxoglutarate was used as the regulator. The regulator was added so that the final concentration of dimethyl 2-oxoglutarate was 2 mmol/L. After the regulator was added, the cultivation was further continued. Then, the amounts of chlorophyll a contained in the microorganism-containing liquids were determined immediately before the regulator was added, 6 hours after the regulator was added, and 24 hours after the regulator was added. In addition, in parallel with the cultivation, cultivation was carried out as described above in a similar manner except that no regulator was added. The amount of chlorophyll a contained in the microorganism-containing liquid was also determined in the same manner as described above. FIG. 4 is a graph showing an example of the effect of the addition of the regulator on the amounts of chlorophyll a. […] Furthermore, “dimethyl 2-OG” indicates the results obtained for unicellular red algae cultured by adding dimethyl 2-oxoglutarate to the culture medium as a regulator.

[4] = final concentrations 10, 20, 40 and 80 mmmol/L (=mM), compared with no regulator added

SMILES	contribution to a reduction of light-harvesting pigments (Cyanidioschyzon merolae [1])	color of the microorganism-containing liquid after cultivation (FIG. 3) (Cyanidioschyzon merolae [1]; [4])	amount of phycocyanin contained in the microorganism-containing liquid (FIG. 5) (Cyanidioschyzon merolae [2])	amount of chlorophyll a contained in the microorganism-containing liquid (FIG. 4) (Cyanidioschyzon merolae [3])	color of the microorganism-containing liquid after cultivation (FIG. 3) (Cyanidioschyzon merolae [1]; final concentration 20 mmol/L or higher)
O=C(O)CCC(=O)C(=O)O [2-oxoglutaric acid, 2-Oxoglutaric acid, reference compound]	little contributed	the same color as that in the case with no regulator added			
COC(=O)CCC(=O)C(=O)OC [dimethyl 2-oxoglutarate]	greatly contributes	lighter than those of the microorganism-containing liquids with no regulator added	decreased according to the culture time	decreased according to the culture time	substantially colorless
